Holding throughout (type): cell-based
For assay [1], the system named is LAPC4 prostate cancer cells. The assay can be described thus: Antiproliferative effects in LAPC4 cells (CellTiter Glo). The settings on record: LAPC4 cells (AKT1 E17K allele), read-out: LAPC4 proliferation IC50. Summed up: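 Growth inhibition is gauged by intracellular ATP content, measured with CellTiter Glo 72 h after compound addition to 1,000 seeded cells per well. IC50 derives from a Hill equation fit.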
(In general: Cellular ATP, detected with luciferase, serves as a proxy for viable cell number.)

Another assay concerns the target T1, AKT1 WT (Homo sapiens, UniProt P31749).
T1 construct: expressed in transfected cells; host or cells: HEK293
Description: Live cell AKT1 WT target engagement by NanoBRET competitive probe displacement. The conditions noted are these: HEK293 cells transfected with kinase-NanoLuciferase fusion, 2 h at 37° C. In a few lines:
(§1)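 Steps: overnight transfection of HEK293 with kinase-NanoLuc plasmids; addition of compound dilutions and tracer (~EC50); 2 h incubation at 37 °C; substrate plus extracellular luciferase inhibitor; luminescence at 460 and 600 nm. IC50 values came from fitting the BRET ratio to a Hill equation.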
On the technique in general: In BRET a luciferase serves as donor, and the signal depends on an acceptor being close.

The next assay deals with T2, AKT1 E17K (Homo sapiens, UniProt P31749, E17K).
T2 construct: expressed in transfected cells; host or cells: HEK293
Description: Live cell AKT1 E17K target engagement by NanoBRET competitive probe displacement. The settings on record: HEK293 cells transfected with kinase-NanoLuciferase fusion, 2 h at 37° C. In a few lines: as §1

The next assay addresses T3, AKT2 (Homo sapiens, UniProt P31751).
T3 construct: expressed in transfected cells; host or cells: HEK293
Description: Live cell AKT2 target engagement by NanoBRET competitive probe displacement. The settings on record: HEK293 cells transfected with kinase-NanoLuciferase fusion, 2 h at 37° C. Here is the method: Determining Live Cell AKT1 E17K, AKT1 WT, and AKT2 Target Engagement by NanoBRET Competitive Probe Displacement.
Live cell target engagement assays were performed as described (Vasta, J. D. et al. Cell Chem Biol 2018, 25(11), 206-214). Briefly, HEK293 cells were transfected with plasmids encoding kinase-NanoLuciferase fusion proteins overnight. Cells were then treated with serial dilutions of compound and an ˜EC50 concentration of fluorescently-tagged ATP-competitive tracer (Promega). After incubation for 2 h at 37° C., luciferase substrate and extracellular luciferase inhibitor were added to all wells, and luminescent intensity at 460 nm and 600 nm were measured on a multimode plate-reader. The ratio of E600/E460 was calculated to give the tracer engagement signal (BRET). IC50 values were calculated by fitting BRET values to a log(inhibitor) vs. response Hill equation.

Like-named read-outs stand apart in the source and are kept apart here.

T3 sequence (P31751 whole entry): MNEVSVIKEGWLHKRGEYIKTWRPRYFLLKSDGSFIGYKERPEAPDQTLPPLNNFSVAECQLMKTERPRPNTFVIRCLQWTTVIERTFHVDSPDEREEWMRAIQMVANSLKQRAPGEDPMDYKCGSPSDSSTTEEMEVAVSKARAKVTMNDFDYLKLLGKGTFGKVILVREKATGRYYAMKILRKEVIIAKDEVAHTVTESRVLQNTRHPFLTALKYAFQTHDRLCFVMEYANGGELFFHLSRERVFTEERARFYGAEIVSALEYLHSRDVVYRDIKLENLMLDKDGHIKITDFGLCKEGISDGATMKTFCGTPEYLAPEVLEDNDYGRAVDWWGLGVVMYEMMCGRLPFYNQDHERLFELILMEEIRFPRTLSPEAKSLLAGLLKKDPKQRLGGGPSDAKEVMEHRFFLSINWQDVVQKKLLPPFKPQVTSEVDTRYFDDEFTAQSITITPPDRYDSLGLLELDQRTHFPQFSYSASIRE
T2 sequence (P31749 whole entry E17K): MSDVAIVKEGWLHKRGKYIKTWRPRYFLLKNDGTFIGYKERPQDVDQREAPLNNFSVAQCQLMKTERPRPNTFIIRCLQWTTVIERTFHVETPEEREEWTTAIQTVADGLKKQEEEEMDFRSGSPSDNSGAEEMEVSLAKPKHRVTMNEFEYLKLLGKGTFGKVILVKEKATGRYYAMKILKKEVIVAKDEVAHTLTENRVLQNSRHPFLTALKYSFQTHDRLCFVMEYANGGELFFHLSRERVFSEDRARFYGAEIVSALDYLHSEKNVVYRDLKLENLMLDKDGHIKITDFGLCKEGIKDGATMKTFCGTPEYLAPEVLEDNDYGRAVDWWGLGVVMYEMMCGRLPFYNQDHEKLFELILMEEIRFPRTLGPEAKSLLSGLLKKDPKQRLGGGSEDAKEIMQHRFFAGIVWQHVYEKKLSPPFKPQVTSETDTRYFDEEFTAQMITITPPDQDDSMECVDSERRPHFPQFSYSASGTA
T1 sequence (P31749 whole entry): as the sequence (P31749 whole entry E17K) above, with K17E counted along it

With `C=CC(=O)N(C)Cc1ccccc1C(=O)N[C@H]1CCc2cc(-n3c(-c4cccnc4N)nc4ccc(-n5cccn5)nc43)ccc21` [Example 265, (S)-N-(5-(2-(2-aminopyridin-3-yl)-5-(1H-pyrazol-1-yl)-3H-imidazo[4,5-b]pyridin-3-yl)-2,3-dihydro-1H-inden-1-yl)-2-((N-methylacrylamido)methyl)benzamide], the IC50 in assay [1] (Homo sapiens, LAPC4, 72 h) is 101 nM; at AKT1 WT it was 89.6 nM; on AKT1 E17K, 10.2 nM; on AKT2, 24.6 nM.

As to `C=CC(=O)N1CCC(F)(CN[C@H]2CCc3cc(-n4c(-c5cccnc5N)nc5ccc(-n6cccn6)nc54)ccc32)CC1` [Example 184, (S)-1-(4-(((5-(2-(2-aminopyridin-3-yl)-5-(1H-pyrazol-1-yl)-3H-imidazo[4,5-b]pyridin-3-yl)-2,3-dihydro-1H-inden-1-yl)amino)methyl)-4-fluoropiperidin-1-yl)prop-2-en-1-one], the IC50 in assay [1] (Homo sapiens, LAPC4, 72 h) was 184 nM; on AKT1 WT it was 104 nM; at AKT1 E17K it was 17.8 nM; at AKT2, 27.2 nM.

Regarding `C=CC(=O)N1CCC(N[C@@H]2c3ccc(-n4c(-c5cccnc5N)nc5ccc(-n6cccn6)nc54)cc3CC2F)C[C@H]1C` (single isomer, unassigned) [Example 144, 1-((2R,4*)-4-(((1R,2*)-5-(2-(2-aminopyridin-3-yl)-5-(1H-pyrazol-1-yl)-3H-imidazo[4,5-b]pyridin-3-yl)-2-fluoro-2,3-dihydro-1H-inden-1-yl)amino)-2-methylpiperidin-1-yl)prop-2-en-1-one], the IC50 turned out to be 293 nM in assay [1] (72 h), 26 nM at AKT1 WT, 74.1 nM on AKT1 E17K and 1180 nM at AKT2.

On to `C=CC(=O)N1CCC(N[C@H]2CCc3cc(-n4c(-c5cccnc5N)nc5ccc(-n6nccn6)nc54)ccc32)C[C@H]1C` (single isomer, unassigned) [Example 262, 1-[(2R,4*)-4-{[(1S)-5-[2-(2-aminopyridin-3-yl)-5-(1,2,3-triazol-2-yl)imidazo[4,5-b]pyridin-3-yl]-2,3-dihydro-1H-inden-1-yl]amino}-2-methylpiperidin-1-yl]prop-2-en-1-one], for which the IC50 in assay [1] (72 h) turned out to be 83.7 nM; on AKT1 WT, 650 nM; at AKT1 E17K, 29.6 nM; at AKT2 it was 45.9 nM.

With `C=C(F)C(=O)Nc1ccccc1C(=O)N[C@H]1CCc2cc(-n3c(-c4cccnc4N)nc4ccc(-n5cccn5)nc43)ccc21` [Example 5, (S)-N-(5-(2-(2-aminopyridin-3-yl)-5-(1H-pyrazol-1-yl)-3H-imidazo[4,5-b]pyridin-3-yl)-2,3-dihydro-1H-inden-1-yl)-2-(2-fluoroacrylamido)benzamide], the IC50 in assay [1] (Homo sapiens, LAPC4, 72 h) was found to be 310 nM; at AKT1 WT it was 19.4 nM; at AKT1 E17K it was 46.2 nM; at AKT2, 271 nM.

Take `C=CC(=O)N1CCC(N[C@@H]2c3ccc(-n4c(-c5cccnc5N)nc5ccc(-n6cccn6)nc54)cc3CC2F)C[C@H]1C` (single isomer, unassigned) [Example 146, 1-((2R,4*)-4-(((1R,2*)-5-(2-(2-aminopyridin-3-yl)-5-(1H-pyrazol-1-yl)-3H-imidazo[4,5-b]pyridin-3-yl)-2-fluoro-2,3-dihydro-1H-inden-1-yl)amino)-2-methylpiperidin-1-yl)prop-2-en-1-one]: the IC50 was 448 nM in assay [1] (72 h), 22.9 nM at AKT1 WT, 78.4 nM on AKT1 E17K and 1580 nM at AKT2.

With `C=CC(=O)N1C2CCC1CC(N[C@H]1CCc3cc(-n4c(-c5cccnc5N)nc5ccc(-n6cccn6)nc54)ccc31)C2` (stereo partly drawn) [Example 27, 1-(3-(((S)-5-(2-(2-aminopyridin-3-yl)-5-(1H-pyrazol-1-yl)-3H-imidazo[4,5-b]pyridin-3-yl)-2,3-dihydro-1H-inden-1-yl)amino)-8-azabicyclo[3.2.1]octan-8-yl)prop-2-en-1-one], the IC50 in assay [1] (Homo sapiens, LAPC4, 72 h) came to 425 nM; at AKT1 WT, 39.4 nM; at AKT1 E17K, 107 nM; on AKT2 it was 192 nM.

`C=CC(=O)N1CCC(NC2c3ccc(-n4c(-c5cccnc5N)nc5ccc(-n6ccc(C7CC7)n6)nc54)cc3CC2F)CC1C(F)F` (single isomer, unassigned) [Example 336, 1-((2*,4*)-4-(((1*,2*)-5-(2-(2-aminopyridin-3-yl)-5-(3-cyclopropyl-1H-pyrazol-1-yl)-3H-imidazo[4,5-b]pyridin-3-yl)-2-fluoro-2,3-dihydro-1H-inden-1-yl)amino)-2-(difluoromethyl)piperidin-1-yl)prop-2-en-1-one]: the IC50 on AKT1 WT worked out at 523 nM; on AKT1 E17K, 16.4 nM; on AKT2 it was 25.4 nM.

For the molecule `C=CC(=O)N1CCC(N[C@@H]2c3ccc(-n4c(-c5ccccc5)nc5ccc(-n6cccn6)nc54)cc3CC2F)CC1C(F)F` (single isomer, unassigned) [Example 331, 1-((2*,4*)-2-(difluoromethyl)-4-(((1R,2*)-2-fluoro-5-(2-phenyl-5-(1H-pyrazol-1-yl)-3H-imidazo[4,5-b]pyridin-3-yl)-2,3-dihydro-1H-inden-1-yl)amino)piperidin-1-yl)prop-2-en-1-one], the IC50 was determined as 807 nM at AKT1 WT, 18.1 nM at AKT1 E17K and 128 nM on AKT2.

Consider `C=CC(=O)N1CCC(N[C@@H]2c3ccc(-n4c(-c5ccccc5)nc5ccc(-n6cccn6)nc54)cc3CC2F)CC1C(F)F` (single isomer, unassigned) [Example 330, 1-((2*,4*)-2-(difluoromethyl)-4-(((1R,2*)-2-fluoro-5-(2-phenyl-5-(1H-pyrazol-1-yl)-3H-imidazo[4,5-b]pyridin-3-yl)-2,3-dihydro-1H-inden-1-yl)amino)piperidin-1-yl)prop-2-en-1-one], for which the results for the IC50 at AKT1 WT, at AKT1 E17K and at AKT2 were 1480 nM, 31 nM and 69.3 nM, respectively.

With `C=CC(=O)N1CCC(N[C@@H]2c3ccc(-n4c(-c5ccccc5)nc5ccc(-c6ccccc6)nc54)cc3CC2F)CC1` (single isomer, unassigned) [Example 325, 1-(4-{[(1R,2*)-5-{2,5-diphenylimidazo[4,5-b]pyridin-3-yl}-2-fluoro-2,3-dihydro-1H-inden-1-yl]amino}piperidin-1-yl)prop-2-en-1-one], the IC50 is 298 nM on AKT1 WT, 7.92 nM at AKT1 E17K and 101 nM on AKT2.

On to `C=CC(=O)N1CCC(CC2CCc3cc(-n4c(-c5cccnc5N)nc5ccc(-n6cccn6)nc54)ccc32)CC1` (single isomer, unassigned) [Example 343, 1-(4-(((*)-5-(2-(2-aminopyridin-3-yl)-5-(1H-pyrazol-1-yl)-3H-imidazo[4,5-b]pyridin-3-yl)-2,3-dihydro-1H-inden-1-yl)methyl)piperidin-1-yl)prop-2-en-1-one], for which the figures for the IC50 on AKT1 WT, on AKT1 E17K and on AKT2 were 86.1 nM, 6.65 nM and 15.9 nM, respectively.

As to `C=CC(=O)N1CCC(N[C@H]2CCc3cc(-n4c(-c5cccnc5N)nc5ccc(-n6cccn6)nc54)ccc32)CC1CC#N` (single isomer, unassigned) [Example 327, 2-((2*,4*)-1-acryloyl-4-(((S)-5-(2-(2-aminopyridin-3-yl)-5-(1H-pyrazol-1-yl)-3H-imidazo[4,5-b]pyridin-3-yl)-2,3-dihydro-1H-inden-1-yl)amino)piperidin-2-yl)acetonitrile], the IC50 on AKT1 WT was determined as 204 nM; at AKT1 E17K it was 25.2 nM; at AKT2, 99.4 nM.

Turning to `C=CC(=O)N1CCC(N[C@@H]2c3ccc(-n4c(-c5ccccc5)nc5ccc(-n6cccn6)nc54)cc3CC2F)CC1C(F)F` (single isomer, unassigned) [Example 329, 1-((2*,4*)-2-(difluoromethyl)-4-(((1R,2*)-2-fluoro-5-(2-phenyl-5-(1H-pyrazol-1-yl)-3H-imidazo[4,5-b]pyridin-3-yl)-2,3-dihydro-1H-inden-1-yl)amino)piperidin-1-yl)prop-2-en-1-one], the results for the IC50 on AKT1 WT, on AKT1 E17K and on AKT2 were 156 nM, 5.37 nM and 17.9 nM, respectively.

For the molecule `C=CC(=O)N1C[C@@H]2[C@H](C1)[C@@H]2NC1CCc2cc(-n3c(-c4cccnc4N)nc4ccc(-n5cccn5)nc43)ccc21` (stereo partly drawn) [Example 345, 1-[(1R,5S,6R)-6-({5-[2-(2-aminopyridin-3-yl)-5-(pyrazol-1-yl)imidazo[4,5-b]pyridin-3-yl]-2,3-dihydro-1H-inden-1-yl}amino)-3-azabicyclo[3.1.0]hexan-3-yl]prop-2-en-1-one], the IC50 came out at 268 nM at AKT1 WT, 34 nM on AKT1 E17K and 63.5 nM at AKT2.

The values above are taken from patent US12570655B2, “Cysteine covalent modifiers of AKT1 and uses thereof” (Terremoto Biosciences, Inc., priority 2023, dated 2026).
